Publication PMC5030359, “Cathelicidin Antimicrobial Peptides with Reduced Activation of Toll-Like Receptor Signaling Have Potent Bactericidal Activity against Colistin-Resistant Bacteria” (mBio, 2016)
Values after ≈ are worked out from the molar mass of the structure shown. Like-named read-outs stand apart in the source and are kept apart here. Ends that are not written are not given here. Peptide text beside a SMILES is read from it.

What was measured:
[1] = test system: 19 Gram-negative strains
Description: (A) Sequences of the cathelicidins, the numbers of bacterial strains killed, and hRBC lysis by the cathelicidins. […] The bacterial species tested are Klebsiella pneumoniae (K. p.), Serratia marcescens (S. m.), Enterobacter cloacae (E. cl.), Escherichia coli (E. c.), and Pseudomonas aeruginosa (P. a.). MICs were determined by the microdilution assay. […] The results are the median values of at least three independent assays.
We tested a panel of cathelicidins for inhibiting growth of 19 Gram-negative strains from the family Enterobacteriaceae and the nonfermentative bacteria. The species tested were Enterobacter cloacae ([2]), Escherichia coli ([5]), Klebsiella pneumoniae ([4]), Pseudomonas aeruginosa ([4]), and Serratia marcescens ([4]). All of the strains selected have been characterized for their antibiotic resistance profiles.
(§4) Antimicrobial activity was determined using the broth microdilution method based on the guidelines of the Clinical and Laboratory Standards Institute (CLSI) ([39]), using cation-adjusted Mueller-Hinton broth (CAMHB) as the testing medium. Reference Gram-positive and Gram-negative bacteria were tested, including both enteric and Pseudomonas aeruginosa strains. Each MIC was determined in at least three independent assays.

[2] = test system: TLR9; test: TLR9 signaling: IL-6 ELISA in BEAS-2B cells treated with CpG DNA ODN2006; format: cell-based, human; conditions: ODN2006 0.5 nM, peptide 2 µM, control cells = 100%, mean (SD) of minimum three assays
Description: (§1) Eight cathelicidins produced by eight mammals were selected for an initial examination (Fig. 1A). […] However, the number of charged residues and the lengths of the disordered residues differed (Fig. 1B). The peptides were added to BEAS-2B cells, a human lung epithelial cell line that expresses multiple TLRs and can release proinflammatory cytokines in response to their activation and the enhancement of cytokine release by LL-37 ([15]). BEAS-2B cells treated with the TLR3 agonist poly(I⋅C) and 2 µM LL-37 increased interleukin 6 (IL-6) production by threefold. All of the nonhuman cathelicidins tested had lower TLR3 signaling compared to LL-37 (Fig. 1B). The lack of TLR3 signaling by the nonhuman cathelicidins was due to the inability to use the formyl peptide receptor-like receptor 1 to endocytose the double-stranded RNA (dsRNA)−LL-37 complex and deliver the poly(I⋅C) to TLR3 in endosomes ([17]) (see Fig. S1 in the supplemental material). All of the nonhuman cathelicidins also had reduced activation of TLR9 compared to LL-37 (Fig. 1B).
(§2) FIG 1 Cathelicidins from animals have distinct abilities to act on Toll-like receptor signaling. (A) A phylogenetic relationship of cathelicidins from mammals. The figure is derived from results of Zanetti et al. (12). (B) Names, lengths, and sequences of cathelicidin peptides and their ability to affect Toll-like receptor signaling. The peptide lengths are shown in the numbers of amino acids (AAs). The residues predicted to form an α-helix are underlined with an arrow. The basic, acidic, and aromatic residues are colored blue, red, and green, respectively. TLR signaling was assessed by the amount of IL-6 cytokine produced in BEAS-2B cells. IL-6 levels were quantified using enzyme-linked immunosorbent assay (ELISA), and the level of IL-6 in the control cells is normalized to 100%. The peptides were added to the cells at a final concentration of 2 μM. Each result is the mean of a minimum of three independent assays, and the standard deviations (SD) are shown in parentheses.
(§3) The concentration of IL-6 secreted into the cell medium was quantified using the OptEIA kit (BD Biosciences, San Jose, CA). A typical assay used 1 × 10^4 BEAS-2B cells/well grown for 24 h in flat-bottom 96-well plates. Poly(I⋅C) was added to a final concentration of 0.13 µg/ml for 24 h. ODN2006 was added to 0.5 nM. Lipopolysaccharides were used at 0.5 µg/ml. All data shown are the means and ranges of 1 standard error for a minimum of three independent samples. Data sets were compared using the Student t test calculated with GraphPad Prism 5 software.

[3] = test system: Escherichia coli
Description: (§5) The bacterial species tested are Klebsiella pneumoniae (K. p.), Serratia marcescens (S. m.), Enterobacter cloacae (E. cl.), Escherichia coli (E. c.), and Pseudomonas aeruginosa (P. a.). MICs were determined by the microdilution assay. […] The results are the median values of at least three independent assays.
as §4

[4] = test system: Pseudomonas aeruginosa
Description: as §5, §4

[5] = test system: Klebsiella pneumoniae
Description: as §5, §4

[6] = test system: TLR4; test: TLR4 signaling: IL-6 ELISA in BEAS-2B cells treated with LPS; format: cell-based, human; conditions: for % IL-6 produced compared to controls (SD) TLR4: BEAS-2B cells, LPS 0.5 µg/ml, peptide 2 µM, ELISA, control cells = 100%, mean (SD) of minimum three assays
Text: as §2
LL-37 at 2 µM final concentration reduced IL-6 production to approximately half that of the untreated cells (Fig. 1B).
as §3

[7] = test system: Serratia marcescens
Description: as §5, §4

[8] = test system: Enterobacter cloacae
Description: as §5, §4

[9] = test system: TLR3; test: TLR3 signaling: IL-6 ELISA in BEAS-2B cells treated with poly(I·C); format: cell-based, human; conditions: for % IL-6 produced compared to controls (SD) TLR3: poly(I·C) […], peptide 2 µM, ELISA, control cells = 100%, mean (SD) of minimum three assays
Description: as §1, §2, §3

[10] = strains with MIC of 16 µg/ml or less / strains tested
[11] = broth microdilution, CAMHB, at least three independent assays

Compound: CC[C@H](C)[C@H](NC(=O)[C@H](CCCCN)NC(=O)[C@H](CCC(=O)O)NC(=O)[C@H](CCCCN)NC(=O)[C@@H](NC(=O)[C@H](CCCCN)NC(=O)[C@H](CCCNC(=N)N)NC(=O)[C@H](Cc1ccccc1)NC(=O)[C@H](Cc1ccccc1)NC(=O)[C@H](CC(N)=O)NC(=O)CNC(=O)[C@H](CC(C)C)NC(=O)[C@@H](N)CCCNC(=N)N)C(C)C)C(=O)NCC(=O)NCC(=O)NCC(=O)N[C@@H](CC(C)C)C(=O)N[C@@H](CCCCN)C(=O)N[C@@H](CCCCN)C(=O)N[C@H](C(=O)NCC(=O)N[C@@H](CCC(N)=O)C(=O)N[C@@H](CCCCN)C(=O)N[C@H](C(=O)N[C@@H](CCCCN)C(=O)N[C@@H](CC(=O)O)C(=O)N[C@@H](Cc1ccccc1)C(=O)N[C@@H](CC(C)C)C(=O)NCC(=O)N[C@@H](CC(N)=O)C(=O)N[C@@H](CC(C)C)C(=O)N[C@H](C(=O)N1CCC[C@H]1C(=O)N[C@@H](CCCNC(=N)N)C(=O)N[C@H](C(=O)N[C@@H](C)C(=O)N[C@@H](CO)C(=O)O)[C@@H](C)O)C(C)C)[C@@H](C)CC)C(C)C [RL-37] (H-RLGNFFRKVKEKIGGGLKKVGQKIKDFLGNLVPRTAS-OH; N-terminus and C-terminus assumed)
- No. of strains inhibited at 16 µg/ml/total no. of strains [1]: 7/19
- % IL-6 produced compared to controls (SD) TLR9 [2]: 93(19) %
- # strains inhibited at 16 µg/ml peptide E. c. [3]: 2/6
- # strains inhibited at 16 µg/ml peptide P. a. [4]: 1/4
- # strains inhibited at 16 µg/ml peptide K. p. [5, 10]: 3/4
- % IL-6 produced compared to controls (SD) TLR4 [6]: 50(5) %
- # strains inhibited at 16 µg/ml peptide S. m. [7, 10]: 0/3
- # strains inhibited at 16 µg/ml peptide E. cl. [8, 10]: 1/2
- % IL-6 produced compared to controls (SD) TLR3 [9]: 102(18) %

Compound: GLRKKFRKTRKRIQKLGRKIGKTGRKVWKAWREYGQIPYPCRI [CAP-11]
- No. of strains inhibited at 16 µg/ml/total no. of strains ([1]; 19 Gram-negative strains, MIC of 16 µg/ml or less): 16
- % IL-6 produced compared to controls (SD) TLR9 [2]: 79(10) %
- # strains inhibited at 16 µg/ml peptide E. c. [3]: 5/6
- # strains inhibited at 16 µg/ml peptide P. a. [4]: 4/4
- # strains inhibited at 16 µg/ml peptide K. p. [5, 10]: 4/4
- % IL-6 produced compared to controls (SD) TLR4 [6]: 9(4) %
- # strains inhibited at 16 µg/ml peptide S. m. [7, 10]: 1/3
- # strains inhibited at 16 µg/ml peptide E. cl. [8, 10]: 2/2
- % IL-6 produced compared to controls (SD) TLR3 [9]: 148(8) %

Compound: CRAMP
- No. of strains inhibited at 16 µg/ml/total no. of strains [1]: 2/19
- % IL-6 produced compared to controls (SD) TLR9 [2]: 41(7) %
- # strains inhibited at 16 µg/ml peptide E. c. [3]: 1/6
- # strains inhibited at 16 µg/ml peptide P. a. [4]: 0/4
- # strains inhibited at 16 µg/ml peptide K. p. [5, 10]: 0/4
- % IL-6 produced compared to controls (SD) TLR4 [6]: 41(7) %
- # strains inhibited at 16 µg/ml peptide S. m. [7, 10]: 0/3
- # strains inhibited at 16 µg/ml peptide E. cl. [8, 10]: 1/2
- % IL-6 produced compared to controls (SD) TLR3 [9]: 57(10) %

Compound: CAP-18
- No. of strains inhibited at 16 µg/ml/total no. of strains [1]: 11/19
- % IL-6 produced compared to controls (SD) TLR9 [2]: 121(23) %
- # strains inhibited at 16 µg/ml peptide E. c. [3]: 3/6
- # strains inhibited at 16 µg/ml peptide P. a. [4]: 3/4
- # strains inhibited at 16 µg/ml peptide K. p. [5, 10]: 4/4
- % IL-6 produced compared to controls (SD) TLR4 [6]: 42(13) %
- # strains inhibited at 16 µg/ml peptide S. m. [7, 10]: 0/3
- # strains inhibited at 16 µg/ml peptide E. cl. [8, 10]: 1/2
- % IL-6 produced compared to controls (SD) TLR3 [9]: 234(30) %

Compound: CC[C@H](C)[C@H](NC(=O)[C@H](CCCCN)NC(=O)[C@H](CCC(=O)O)NC(=O)[C@H](CCCCN)NC(=O)[C@H](CO)NC(=O)[C@H](CCCCN)NC(=O)[C@H](CCCNC(=N)N)NC(=O)[C@H](Cc1ccccc1)NC(=O)[C@H](Cc1ccccc1)NC(=O)[C@H](CC(=O)O)NC(=O)CNC(=O)[C@H](CC(C)C)NC(=O)[C@@H](N)CC(C)C)C(=O)NCC(=O)N[C@@H](CCCCN)C(=O)N[C@@H](CCC(=O)O)C(=O)N[C@@H](Cc1ccccc1)C(=O)N[C@@H](CCCCN)C(=O)N[C@@H](CCCNC(=N)N)C(=O)N[C@H](C(=O)N[C@H](C(=O)N[C@@H](CCC(N)=O)C(=O)N[C@@H](CCCNC(=N)N)C(=O)N[C@H](C(=O)N[C@@H](CCCCN)C(=O)N[C@@H](CC(=O)O)C(=O)N[C@@H](Cc1ccccc1)C(=O)N[C@@H](CC(C)C)C(=O)N[C@@H](CCCNC(=N)N)C(=O)N[C@@H](CC(N)=O)C(=O)N[C@@H](CC(C)C)C(=O)N[C@H](C(=O)N1CCC[C@H]1C(=O)N[C@@H](CCCNC(=N)N)C(=O)N[C@H](C(=O)N[C@@H](CCC(=O)O)C(=O)N[C@@H](CO)C(=O)O)[C@@H](C)O)C(C)C)[C@@H](C)CC)C(C)C)[C@@H](C)CC [LL-37]
- No. of strains inhibited at 16 µg/ml/total no. of strains [1]: 0/19
- MIC for any/all of the 19 bacterial strains ([1]; statement over all 19 Gram-negative strains): at least 32 µg/ml
- % IL-6 produced compared to controls (SD) TLR9 [2]: 175(15) %
- # strains inhibited at 16 µg/ml peptide E. c. [3]: 0/6
- MIC E. coli ATCC 25922 [3, 11]: 32 µg/mL (≈ 7.12 µM)
- MIC E. coli ATCC 35218 [3, 11]: 32 µg/mL (≈ 7.12 µM)
- MIC E. coli IU0342 [3, 11]: 32 µg/mL (≈ 7.12 µM)
- MIC E. coli J53 AzideR [3, 11]: >32 µg/mL
- MIC E. coli MC4100 [3, 11]: >32 µg/mL
- # strains inhibited at 16 µg/ml peptide P. a. [4]: 0/4
- MIC P. aeruginosa 4083 [4, 11]: 32 µg/mL (≈ 7.12 µM)
- MIC P. aeruginosa ATCC 27853 [4, 11]: >32 µg/mL
- MIC P. aeruginosa PAO1 [4, 11]: 32 µg/mL (≈ 7.12 µM)
- MIC P. aeruginosa PAO1 ΔOprD [4, 11]: 32 µg/mL (≈ 7.12 µM)
- # strains inhibited at 16 µg/ml peptide K. p. [5]: 0/4
- MIC K. pneumoniae 4110 [5, 11]: >32 µg/mL
- MIC K. pneumoniae ATCC 700603 [5, 11]: >32 µg/mL
- MIC K. pneumoniae C2 [5, 11]: >32 µg/mL
- MIC K. pneumoniae OC8893 [5, 11]: >32 µg/mL
- % IL-6 produced compared to controls (SD) TLR4 [6]: 55(3) %
- IL-6 production relative to untreated cells ([6]; LPS-induced TLR4 signaling, 2 µM peptide): approximately half
- # strains inhibited at 16 µg/ml peptide S. m. [7]: 0/3
- MIC S. marcescens 4075 [7, 11]: >32 µg/mL
- MIC S. marcescens 4101 [7, 11]: >32 µg/mL
- MIC S. marcescens 4104 [7, 11]: >32 µg/mL
- MIC S. marcescens 7553 [7, 11]: >32 µg/mL
- # strains inhibited at 16 µg/ml peptide E. cl. [8]: 0/2
- MIC E. cloacae 4080 [8, 11]: 32 µg/mL (≈ 7.12 µM)
- MIC E. cloacae 4092 [8, 11]: >32 µg/mL
- % IL-6 produced compared to controls (SD) TLR3 [9]: 389(16) %
- increase of IL-6 production ([9]; poly(I·C), 2 µM peptide): threefold
